Source: patent publication US8906826B2, “Herbicidal compositions comprising 4-amino-3-chloro-5-fluoro-6-(4-chloro-2-fluoro-3-methoxyphenyl) pyridine-2-carboxylic acid or a derivative thereof and imidazolinones” (Dow AgroSciences, LLC, priority 2012, dated 2014)

Columns and labels:
[1] = tested on: SONAR; assay: Postemergence herbicidal activity in forage crops (Example IV); type: in vivo, Sonchus arvensis L.; conditions: after approximately 21 days
Protocol: Seeds or root cuttings of the desired test plant species were planted in Sun Gro MetroMix® 306 planting mixture, which typically has a pH of about 6.0 to about 6.8 and an organic matter content of about 30 percent, in plastic pots with a surface area of 126.6 square centimeters (cm^2). When required to ensure good germination and healthy plants, a fungicide treatment and/or other chemical or physical treatment was applied. The plants were grown for 14-60 days in a greenhouse with an approximate 14 hour photoperiod which was maintained at about 28° C. during the day and about 24° C. during the night. Nutrients and water were added on a regular basis and supplemental lighting was provided with overhead metal halide 1000-Watt lamps as necessary. The plants were employed for testing when they reached the BBCH13 to BBCH23 leaf stage.
Treatments consisted of the benzyl ester of 4-amino-3-chloro-5-fluoro-6-(4-chloro-2-fluoro-3-methoxy-phenyl)pyridine-2-carboxylic acid (Compound A), formulated as a SC (suspension concentrate), and a second herbicide alone and in combination.
A measured aliquot of Compound A was placed in a 25 milliliter (mL) glass vial and diluted in a volume of 1.25% (v/v) Agri-Dex® crop oil concentrate to obtain stock solutions. Compound requirements are based upon a 12 mL application volume at a rate of 187 liters per hectare (L/ha). Spray solutions of the second cereal herbicide and experimental compound mixtures were prepared by adding the stock solutions to the appropriate amount of dilution solution to form 12 mL spray solution with active ingredients in two- and three-way combinations. Formulated compounds were applied to the plant material with an overhead Mandel track sprayer equipped with an 8002E nozzle calibrated to deliver 187 L/ha over an application area of 0.503 square meters (m^2) at a spray height of 18 inches (46 cm) above average plant canopy. Control plants were sprayed in the same manner with the solvent blank.
(§1) The treated plants and control plants were placed in a greenhouse as described above and watered by sub-irrigation to prevent wash-off of the test compounds. After approximately 21 days, the condition of the test plants, as compared with that of the control plants, was determined visually and scored on a scale of 0 to 100 percent where 0 corresponds to no injury and 100 corresponds to complete kill.
Colby's equation was used to determine the herbicidal effects expected from the mixtures (Colby, S. R. 1967. Calculation of the synergistic and antagonistic response of herbicide combinations. Weeds 15:20-22.).
The following equation was used to calculate the expected activity of mixtures containing two active ingredients, A and B: Expected=A+B−(A×B/100)

[2] = tested on: CIRAR; assay: Postemergence herbicidal activity in cereal crops, greenhouse (Example V); type: in vivo, Cirsium arvense (L.) Scop.
Protocol: (§2) Seeds of the desired test plant species were planted in Sun Gro MetroMix® 306 planting mixture, which typically has a pH of 6.0 to 6.8 and an organic matter content of about 30 percent, in plastic pots with a surface area of 103.2 square centimeters (cm^2). When required to ensure good germination and healthy plants, a fungicide treatment and/or other chemical or physical treatment was applied. The plants were grown for 7-36 days in a greenhouse with an approximate 14 hour photoperiod which was maintained at about 18° C. during the day and about 17° C. during the night. Nutrients and water were added on a regular basis and supplemental lighting was provided with overhead metal halide 1000-Watt lamps as necessary. The plants were employed for testing when they reached the second or third true leaf stage.
(§3) Treatments consisted of the benzyl ester of 4-amino-3-chloro-5-fluoro-6-(4-chloro-2-fluoro-3-methoxy-phenyl)pyridine-2-carboxylic acid (Compound A), formulated as an SC, a second cereal herbicide alone and then both in combination.
(§4) Other herbicidal components were applied on an acid equivalent basis and include acetolactate synthase (ALS)-inhibiting herbicides (imidazolinone chemical class) imazamethabenz-methyl formulated as Assert®. Spray solutions of the second cereal herbicide and experimental compound mixtures were prepared by adding the stock solutions to the appropriate amount of dilution solution to form 12 mL spray solution with active ingredients in two- and three-way combinations. […]
as §1, with “20-22” for “approximately 21”, “plants” for “plants,”, “kill. […]” for “kill.”

[3] = tested on: SINAR; assay: as above; type: in vivo, Sinapis arvensis L.
Protocol: as §2, §3, §4
as §1, with “20-22” for “approximately 21”, “plants” for “plants,”, “kill. […]” for “kill.”

[4] = tested on: SASKR; assay: as above; type: in vivo, Salsola iberica L.
Protocol: as §2, §3, §4
as §1, with “20-22” for “approximately 21”, “plants” for “plants,”, “kill. […]” for “kill.”

[5] = Compound A Benzyl Ester 2 gae/ha
[6] = Compound A Benzyl Ester 4 gae/ha

Row | Compound | SONAR Obs ([1]; Imazapic ammonium 17.5 gae/ha) | Visual Weed Control (%) - 21 DAA CIRAR Obs [2, 5] | Visual Weed Control (%) - 21 DAA CIRAR Obs [2, 6] | Visual Weed Control (%) - 21 DAA SINAR Obs [3, 5] | Visual Weed Control (%) - 21 DAA SINAR Obs [3, 6] | SONAR Obs ([1]; Compound A Benzyl Ester 4.4 gae/ha) | SONAR Obs ([1]; Compound A Benzyl Ester 8.8 gae/ha) | SONAR Obs ([1]; Compound A Benzyl Ester 17.5 gae/ha) | Visual Weed Control (%) - 21 DAA SASKR Obs [4, 5] | Visual Weed Control (%) - 21 DAA SASKR Obs [4, 6]
1 | Cc1cnc(C2=NC(C)(C(C)C)C(=O)N2)c(C(=O)O)c1.N (racemic) [Imazapic ammonium, ammonium (±)-2-[4,5-dihydro-4-methyl-4-(1-methylethyl)-5-oxo-1H-imidazol-2-yl]-5-methyl-3-pyridinecarboxylic acid] | 0% |  |  |  |  |  |  |  |  | 
2 | COc1c(Cl)ccc(-c2nc(C(=O)OCc3ccccc3)c(Cl)c(N)c2F)c1F [Compound A Benzyl Ester, benzyl ester of 4-amino-3-chloro-5-fluoro-6-(4-chloro-2-fluoro-3-methoxy-phenyl)pyridine-2-carboxylic acid] |  | 10% | 20% | 60% | 70% | 65% | 100% | 95% | 10% | 60%
